Where two headings read alike, the source gives them in different places.
Legend:
CB1 receptor = biological target: T1, CB1 receptor (Homo sapiens, UniProt P21554); assay: [3H]CP-55,940 radioligand competition binding, CB1
T1 construct: host or cells: cell membrane preparations

CB2 receptor = CB2 receptor (Homo sapiens, UniProt P34972); assay: [3H]CP-55,940 radioligand competition binding, CB2; design: host or cells: cell membrane preparations; settings: for SI: selectivity index for CB2: Ki(CB1)/Ki(CB2) ratio
[1] = [3H]CP-55,940 displacement, read-out: Ki (CB1)
[2] = [3H]CP-55,940 displacement, read-out: Ki (CB2)

Chain of CB2 receptor (P34972 whole entry): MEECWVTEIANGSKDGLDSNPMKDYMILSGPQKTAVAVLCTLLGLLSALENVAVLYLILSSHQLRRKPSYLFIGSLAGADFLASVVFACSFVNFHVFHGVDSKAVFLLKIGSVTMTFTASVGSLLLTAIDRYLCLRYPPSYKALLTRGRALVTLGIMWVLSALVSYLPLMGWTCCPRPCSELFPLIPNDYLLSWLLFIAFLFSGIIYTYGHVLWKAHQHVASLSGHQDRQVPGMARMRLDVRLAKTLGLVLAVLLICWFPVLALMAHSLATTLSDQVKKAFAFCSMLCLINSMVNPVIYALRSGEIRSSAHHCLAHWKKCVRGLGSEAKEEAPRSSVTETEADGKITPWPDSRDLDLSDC
T1 sequence (P21554 whole entry): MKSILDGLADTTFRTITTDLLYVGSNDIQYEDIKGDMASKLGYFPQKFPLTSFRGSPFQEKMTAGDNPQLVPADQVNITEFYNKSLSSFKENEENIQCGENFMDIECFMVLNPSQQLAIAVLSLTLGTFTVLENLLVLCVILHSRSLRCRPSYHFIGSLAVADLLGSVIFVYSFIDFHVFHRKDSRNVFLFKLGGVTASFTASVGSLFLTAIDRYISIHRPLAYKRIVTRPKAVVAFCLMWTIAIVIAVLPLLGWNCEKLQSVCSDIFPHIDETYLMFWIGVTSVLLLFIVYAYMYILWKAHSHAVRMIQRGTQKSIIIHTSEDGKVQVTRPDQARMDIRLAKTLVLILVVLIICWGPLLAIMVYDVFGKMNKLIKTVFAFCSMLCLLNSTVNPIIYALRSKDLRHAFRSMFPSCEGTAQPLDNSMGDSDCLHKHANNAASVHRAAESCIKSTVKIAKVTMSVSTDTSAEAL

Compound	Ki (CB1 receptor; [1]) [nM]	SI: selectivity index for CB2 (CB2 receptor)	Ki (CB2 receptor; [2]) [nM]	Ki (CB2 receptor) [nM]	Ki (CB1 receptor) [nM]
CCN(CC)c1ccc(CN(C(=O)Cc2ccc(Cl)cc2)c2ccc(Cl)cc2)cc1 [Compound 88, N,2-bis(4-Chlorophenyl)-N-(4-(diethylamino)benzyl)acetamide]	> 20000	147	136	–	–
CCN(CC)c1ccc(CN(c2ccc(Cl)cc2)S(=O)(=O)c2cccc(C)c2)cc1 [Compound 86, N-(4-Chlorophenyl)-N-(4-(diethylamino)benzyl)-3-methylbenzenesulfonamide]	866	–	2.8	–	–
CCN(CC)c1ccc(CN(C(=O)C2CCCCC2)C23CC4CC(CC(C4)C2)C3)cc1 [Compound 63, N-((3s,5s,7s)-Adamantan-1-yl)-N-(4-(diethylamino)benzyl)cyclohexanecarboxamide]	> 20000	>571	–	35	–
CCN(CC)c1ccc(CN(C(=O)Cc2ccccc2)c2ccc(C)cc2)cc1 [Compound 97, N-(4-(Diethylamino)benzyl)-2-phenyl-N-(p-tolyl)acetamide]	> 20000	>277	72	–	–
CCN(CC)c1ccc(C(NC(=O)C(C)C)NC(=O)C(C)C)cc1 [Compound 50, N,N′-((4-(diethylamino)phenyl)methylene)bis(2-methylpropanamide)]	> 20000	–	2640	–	–
CCN(CC)c1ccc(CN(C23CC4CC(CC(C4)C2)C3)S(=O)(=O)c2ccccc2)cc1 [Compound 56, N-((3s,5s,7s)-Adamantan-1-yl)-N-(4-(diethylamino)benzyl)benzenesulfonamide]	–	–	–	84	11000
CCN(CC)c1ccc(CN(C23CC4CC(CC(C4)C2)C3)S(=O)(=O)c2ccc(Cl)cc2)cc1 [Compound 58, N-((3s,5s,7s)-Adamantan-1-yl)-4-chloro-N-(4-(diethylamino)benzyl)benzenesulfonamide]	2030	11	173	–	–
CCN(CC)c1ccc(CN(c2ccc(C)cc2)S(=O)(=O)c2cccc(C)c2)cc1 [Compound 95, N-(4-(Diethylamino)benzyl)-3-methyl-N-(p-tolyl)benzenesulfonamide]	218	37	5.8	–	–
CCN(CC)c1ccc(CN(C23CC4CC(CC(C4)C2)C3)S(=O)(=O)c2ccc(F)cc2)cc1 [Compound 57, N-((3s,5s,7s)-Adamantan-1-yl)-N-(4-(diethylamino)benzyl)-4-fluorobenzenesulfonamide]	4270	–	–	25	–
CCN(CC)c1ccc(CN(c2ccc(C)cc2)S(=O)(=O)c2ccc(Cl)cc2)cc1 [Compound 92, 4-Chloro-N-(4-(diethylamino)benzyl)-N-(p-tolyl)benzenesulfonamide]	412	–	3	–	–
CCN(CC)c1ccc(CN(c2ccc(C)cc2)S(=O)(=O)c2ccccc2)cc1 [Compound 90, N-(4-(Diethylamino)benzyl)-N-(p-tolyl)benzenesulfonamide]	514	151	3.4	–	–
O=C(Cc1ccccc1)NC(/C=C/c1ccccc1)NC(=O)Cc1ccccc1 [Compound 46, (E)-N,N′-(3-Phenylprop-2-ene-1,1-diyl)bis(2-phenylacetamide)]	> 20000	–	–	–	–
CCCCCCCN(Cc1ccc(N(CC)CC)cc1)C(=O)c1ccc(N(C)C)cc1 [Compound 78, N-(4-(Diethylamino)benzyl)-4-(dimethylamino)-N-heptylbenzamide]	–	–	1280	–	–
CCN(CC)c1ccc(CN(C(=O)C2CCCCC2)c2ccc(C)cc2)cc1 [Compound 99, N-(4-(Diethylamino)benzyl)-N-(p-tolyl)cyclohexanecarboxamide]	202	0.9	222	–	–
CCN(CC)c1ccc(CNc2ccc(Cl)cc2)cc1 [G, 4-(((4-Chlorophenyl)amino)methyl)-N,N′-diethylaniline]	–	–	6740	–	–
CCN(CC)c1ccc(CN(C23CC4CC(CC(C4)C2)C3)S(=O)(=O)c2ccc(OC)cc2)cc1 [Compound 59, N-(3r)-Adamantan-1-yl)-N-(4-(diethylamino)benzyl)-4-methoxybenzenesulfonamide]	–	–	137	–	–
O=C(Cc1ccccc1)NC(NC(=O)Cc1ccccc1)c1ccccc1F [Compound 3, N,N′-((2-fluorophenyl)methylene)bis(2-phenylacetamide)]	–	–	35300	–	–
O=C(Cc1ccc(C(F)(F)F)cc1)NC(NC(=O)Cc1ccc(C(F)(F)F)cc1)c1ccccc1 [Compound 30, N,N′-(phenylmethylene)bis(2-(4-(trifluoromethyl)phenyl)acetamide)]	–	–	> 20000	–	–
CCN(CC)c1ccc(CN(c2ccc(Cl)cc2)S(=O)(=O)c2ccc(F)cc2)cc1 [Compound 82, N-(4-Chlorophenyl)-N-(4-(diethylamino)benzyl)-4-fluorobenzenesulfonamide]	1130	15	73	–	–

Further lines, with some results ahead:

Ki (CB1 receptor; [1]) [nM]	SI: selectivity index for CB2 (CB2 receptor)	Ki (CB2 receptor; [2]) [nM]	Compound	Ki (CB2 receptor) [nM]	Ki (CB1 receptor) [nM]
> 20000	–	–	CCN(CC)c1ccc(CN(C(=O)Cc2ccc(Cl)cc2)C23CC4CC(CC(C4)C2)C3)cc1 [Compound 65, N-((3s,5s,7s)-Adamantan-1-yl)-2-(4-chlorophenyl)-N-(4-(diethylamino)benzyl)acetamide]	–	–
> 20000	>333	60	CCN(CC)c1ccc(CN(C(=O)Cc2ccccc2)C23CC4CC(CC(C4)C2)C3)cc1 [Compound 66, N-((3s,5s,7s)-Adamantan-1-yl)-N-(4-(diethylamino)benzyl)-2-phenylacetamide]	–	–
> 20000	>119	167	CCN(CC)c1ccc(C(NC(=O)C=Cc2ccccc2)NC(=O)C=Cc2ccccc2)cc1 (stereo not shown) [Compound 48, N,N′-((4-(Diethylamino)phenyl)methylene)bis(3-phenylacrylamide)]	–	–
> 20000	121	164	CCN(CC)c1ccc(CN(C(=O)C2CCCCC2)c2ccc(Cl)cc2)cc1 [Compound 89, N-(4-Chlorophenyl)-N-(4-(diethylamino)benzyl)cyclohexanecarboxamide]	–	–
137	3.7	37	CCN(CC)c1ccc(CN(c2ccc(Cl)cc2)S(=O)(=O)c2ccc(C)cc2)cc1 [Compound 85, N-(4-Chlorophenyl)-N-(4-(diethylamino)benzyl)-4-methylbenzenesulfonamide]	–	–
> 20000	–	3550	CCN(CC)c1ccc(C(NC(=O)C(C)(C)C)NC(=O)C(C)(C)C)cc1 [Compound 51, N,N′-((4-(diethylamino)phenyl)methylene)bis(2,2-dimethylpropanamide)]	–	–
> 20000	–	9320	O=C(Cc1ccccc1)NC(CCc1ccccc1)NC(=O)Cc1ccccc1 [Compound 45, N,N′-(3-Phenylpropane-1,1-diyl)bis(2-phenylacetamide)]	–	–
109	–	494	Cc1ccc(C(NC(=O)Cc2ccccc2)NC(=O)Cc2ccccc2)cc1 [Compound 8, N,N′-(p-tolylmethylene)bis(2-phenylacetamide)]	–	–
6620	183	36	CCN(CC)c1ccc(CN(c2ccc(Cl)cc2)S(=O)(=O)c2ccc(Cl)cc2)cc1 [Compound 83, 4-Chloro-N-(4-chlorophenyl)-N-(4-(diethylamino)benzyl)benzenesulfonamide]	–	–
858	153	5.6	CCN(CC)c1ccc(CN(c2ccc(C)cc2)S(=O)(=O)c2ccc(F)cc2)cc1 [Compound 91, N-(4-(Diethylamino)benzyl)-4-fluoro-N-(p-tolyl)benzenesulfonamide]	–	–
3360	782	4.3	CCN(CC)c1ccc(CN(c2ccc(C)cc2)S(=O)(=O)c2ccc(C(C)C)cc2)cc1 [Compound 96, N-(4-(Diethylamino)benzyl)-4-isopropyl-N-(p-tolyl)benzenesulfonamide]	–	–
–	>136	146	CCCCCCCC(=O)NC(NC(=O)CCCCCCC)c1ccc(N(CC)CC)cc1 [Compound 54, N,N′-((4-(diethylamino)phenyl)methylene)dioctanamide]	–	–
–	–	13000	CCCCCCCN(Cc1ccc(N(CC)CC)cc1)S(=O)(=O)c1ccc(C(C)C)cc1 [Compound 69, N-(4-(Diethylamino)benzyl)-N-heptyl-4-isopropylbenzenesulfonamide]	–	–
–	–	18200	CCCCCC(NC(=O)Cc1ccccc1)NC(=O)Cc1ccccc1 [Compound 41, N,N′-(hexane-1,1-diyl)bis(2-phenylacetamide)]	–	–
> 20000	–	–	CCN(CC)c1ccc(CN(C23CC4CC(CC(C4)C2)C3)S(=O)(=O)c2ccc(C)cc2)cc1 [Compound 60, N-((3s,5s,7s)-Adamantan-1-yl)-N-(4-(diethylamino)benzyl)-4-methylbenzenesulfonamide]	–	–
1770	–	–	CCN(CC)c1ccc(CN(c2ccc(Cl)cc2)S(=O)(=O)c2ccccc2)cc1 [Compound 81, N-(4-Chlorophenyl)-N-(4-(diethylamino)benzyl)benzenesulfonamide]	–	–
–	–	> 20000	O=C(Cc1ccc(Cl)cc1)NC(NC(=O)Cc1ccc(Cl)cc1)c1ccc(F)cc1 [Compound 23, N,N′-((4-fluorophenyl)methylene)bis(2-(4-chlorophenyl)acetamide)]	–	–
–	–	> 20000	CCCCCCCC(=O)N(CCCCCCC)Cc1ccc(N(CC)CC)cc1 [Compound 80, N-(4-(Diethylamino)benzyl)-N-heptyloctanamide]	–	–
–	–	222	CCN(CC)c1ccc(CN(c2ccc(Cl)cc2)S(=O)(=O)c2ccc(C(C)C)cc2)cc1 [Compound 87, N-(4-Chlorophenyl)-N-(4-(diethylamino)benzyl)-4-isopropylbenzenesulfonamide]	–	–
> 20000	–	–	O=C(Cc1ccccc1)NC(Cc1ccccc1)NC(=O)Cc1ccccc1 [Compound 44, N,N′-(2-Phenylethane-1,1-diyl)bis(2-phenylacetamide)]	–	–
–	–	36000	CCCCC(NC(=O)Cc1ccccc1)NC(=O)Cc1ccccc1 [Compound 40, N,N′-(pentane-1,1-diyl)bis(2-phenylacetamide)]	–	–
